17 molecules from US9765092B2, “Tricyclic piperidine compounds” (ACTELION PHARMACEUTICALS LTD, priority 2013, dated 2017) can be followed below.

Chain of human TPH1 (P17752 whole entry): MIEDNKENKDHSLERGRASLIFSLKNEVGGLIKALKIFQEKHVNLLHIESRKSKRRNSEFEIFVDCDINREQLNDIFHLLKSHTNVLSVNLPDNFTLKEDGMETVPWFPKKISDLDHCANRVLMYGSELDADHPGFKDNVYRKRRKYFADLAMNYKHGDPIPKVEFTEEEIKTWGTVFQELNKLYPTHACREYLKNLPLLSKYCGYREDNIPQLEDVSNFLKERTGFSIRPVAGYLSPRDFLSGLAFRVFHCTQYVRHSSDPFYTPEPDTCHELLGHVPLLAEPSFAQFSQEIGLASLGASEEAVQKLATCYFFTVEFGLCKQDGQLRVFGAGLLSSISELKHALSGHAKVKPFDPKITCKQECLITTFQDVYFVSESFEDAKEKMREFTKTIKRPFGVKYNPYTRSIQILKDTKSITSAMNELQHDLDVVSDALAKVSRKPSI

The first test has as its target human TPH1 (Homo sapiens (Human), UniProt P17752). Nature of the test: Biochemical in vitro assay using fluorescence readout (TPH1 inhibition). To be noted: full length human TPH1, 40 μM L-tryptophan, 15° C., 60 minutes, fluorescence at 540 nm; mean if determined several times. An excerpt: Biochemical In Vitro Assay Using Fluorescence Readout
To generate the enzyme, full length human TPH1 is cloned into the plasmid pET20b(+) (Novagen) and expressed in E. coli. The bacterial cells are ruptured by sonication on ice and the lysate is cleared by centrifugation. The resulting protein in the pellet is re-extracted and TPH1 is purified from the obtained lysate by affinity chromatography using a pterin cosubstrate analog immobilized to the resin of the column. The protein is further purified by size exclusion chromatography to remove protein aggregates. The activity of TPH1 is determined by using a fluorescence assay. The enzyme activity assay is carried out at 15° C. with atmosphere oxygen for the duration of 60 minutes in a volume of 64 μl. The reaction is carried out in a 0.1 M Tris-HCl buffer, adjusted to pH 7.6, containing 1 mM DTT, 0.2 mg/mL catalase, 100 μM (±)-6-methyl-5,6,7,8-tetrahydropterine dihydrochloride, 40 μM L-tryptophan, and 40-80 nM of TPH1. The reaction is started by bringing together L-tryptophan with all the other reaction substituents and stopped by quenching with perchloric acid (HClO4). The amount of 5-hydroxy-L-tryptophan produced during the enzymatic reaction is determined by fluorescence readout. Fluorescence, as determined at 540 nm when excited at 300 nm wavelength, increases proportionally to the 5-hydroxy-L-tryptophan formed. Compounds are prepared as 10 mM stock solution in DMSO, then diluted in 384-well plates using DMSO followed by a transfer of the dilutions into the assay plate. Fluorescence is measured for each well and the fluorescence at 540 nm wavelength is compared to the fluorescence of the vehicle in place of compound. Inhibitory activities of example compounds with respect to the TPH1 protein are determined by calculating the IC50 value (the concentration of compound needed to inhibit 50% of the enzyme activity). The calculated IC50 values may fluctuate depending on the daily biochemical assay performance. Fluctuations of this kind are known to those skilled in the art.
Take `Cc1nn2c3c(nc2s1)CCN(C(=O)COc1cccnc1Cl)C3c1cnc(N(C)C)s1` (centres unmarked) [Example 1.22.7, 2-((2-Chloropyridin-3-yl)oxy)-1-(5-(2-(dimethylamino)thiazol-5-yl)-2-methyl-7,8-dihydro[1,3,4]thiadiazolo[2′,3′:2,3]imidazo[4,5-c]pyridin-6(5H)-yl)ethanone]: the IC50 was found to be 81 nM.

In the case of `Cc1nn2c3c(nc2s1)CCN(C(=O)COc1ccc(NS(C)(=O)=O)nc1Cl)C3c1cc(C(=O)N(C)C)cs1` (centres unmarked) [Example 1.9.4, 5-(6-(2-((2-Chloro-6-(methylsulfonamido)pyridin-3-yl)oxy)acetyl)-2-methyl-5,6,7,8-tetra-hydro-[1,3,4]thiadiazolo[2′,3′:2,3]imidazo[4,5-c]pyridin-5-yl)-N,N-dimethylthiophene-3-carboxamide], the IC50 is 32 nM. Against the preceding molecule, the IC50 is about 2.5-fold lower.

Molecule `Cc1nn2c3c(nc2s1)CCN(C(=O)COc1ccc(N2CCOCC2)nc1Cl)C3c1cc(C(=O)O)cs1` (centres unmarked) [Example 1.46.1, 5-(6-(2-((2-chloro-6-morpholinopyridin-3-yl)oxy)acetyl)-2-methyl-5,6,7,8-tetrahydro-[1,3,4]thiadiazolo[2′,3′:2,3]imidazo[4,5-c]pyridin-5-yl)thiophene-3-carboxylic acid] came in with an IC50 of 18 nM.

Staying with this test, now noted: human TPH1, fluorescence readout.
On to `COC(=O)c1cnc(C2c3c(nc4sc(C)nn34)CCN2C(=O)COc2ccc(NS(=O)(=O)C3CC3)nc2Cl)s1` (centres unmarked) [Example 1.28.3, Methyl 2-(6-(2-((2-chloro-6-(cyclopropanesulfonamido)pyridin-3-yl)oxy)acetyl)-2-methyl-5,6,7,8-tetrahydro-[1,3,4]thiadiazolo[2′,3′:2,3]imidazo[4,5-c]pyridin-5-yl)thiazole-5-carboxylate], for which the IC50 worked out at 45 nM.

`COC(C)(C)c1ccc(C2c3c(nc4sc(C)nn34)CCN2C(=O)COc2ccc(C(=O)NC3CC3)nc2Cl)c(F)c1` (centres unmarked) [Example 1.81.1, 6-chloro-N-cyclopropyl-5-(2-(5-(2-fluoro-4-(2-methoxypropan-2-yl)phenyl)-2-methyl-7,8-dihydro-[1,3,4]thiadiazolo[2′,3′:2,3]imidazo[4,5-c]pyridin-6(5H)-yl)-2-oxoethoxy)picolinamide]: the midpoint of inhibition, the IC50, lay at 27 nM.

With `CCc1ncccc1OCC(=O)N1CCc2nc3sc(C)nn3c2C1c1coc(-c2ccccc2)n1` (centres unmarked) [Example 1.12.2, 2-((2-ethylpyridin-3-yl)oxy)-1-(2-methyl-5-(2-phenyloxazol-4-yl)-7,8-dihydro-[1,3,4]thiadiazolo[2′,3′:2,3]imidazo[4,5-c]pyridin-6(5H)-yl)ethanone], the IC50 was determined as 336 nM.

On to `CCc1nc(N2CCCS2(=O)=O)ccc1OCC(=O)N1CCc2nc3sc(CF)nn3c2C1c1ccc(Cl)cc1F` (centres unmarked) [Example 7.1.3, 1-(5-(4-chloro-2-fluorophenyl)-2-(fluoromethyl)-7,8-dihydro-[1,3,4]thiadiazolo[2′,3′:2,3]imidazo[4,5-c]pyridin-6(5H)-yl)-2-((6-(1,1-dioxidoisothiazolidin-2-yl)-2-ethylpyridin-3-yl)oxy)ethan-1-one], for which the IC50 stood at 6 nM.

`O=C(COc1ccc(CN2CCOCC2)cc1Cl)N1CCc2nc3sccn3c2C1c1cnn(-c2ccccc2)c1` (centres unmarked) [Example 6.13.5, 2-(2-chloro-4-(morpholinomethyl)phenoxy)-1-(5-(1-phenyl-1H-pyrazol-4-yl)-7,8-dihydrothiazolo-[2′,3′:2,3]imidazo[4,5-c]pyridin-6(5H)-yl)ethanone] registered an IC50 of 7 nM.

In turn, `Cc1nn2c3c(nc2s1)CCN(C(=O)COc1ccc(NS(C)(=O)=O)nc1Cl)C3c1ccc(C(C)(C)O)cc1F` (centres unmarked) [Example 1.80.1, N-(6-chloro-5-(2-(5-(2-fluoro-4-(2-hydroxypropan-2-yl)phenyl)-2-methyl-7,8-dihydro-[1,3,4]thiadiazolo[2′,3′:2,3]imidazo[4,5-c]pyridin-6(5H)-yl)-2-oxoethoxy)pyridin-2-yl)methanesulfonamide] yielded an IC50 of 98 nM.

On to `Cc1cc(Cl)ccc1OCC(=O)N1CCc2nc3sccn3c2C1c1cc2cccnc2s1` (centres unmarked) [Example 6.14.2, 2-(4-chloro-2-methylphenoxy)-1-(5-(thieno[2,3-b]-pyridin-2-yl)-7,8-dihydrothiazolo[2′,3′:2,3]imidazo[4,5-c]pyridin-6(5H)-yl)ethanone], for which the IC50 came out at 39 nM.

`COC1(C)CN(c2ccc(OCC(=O)N3CCc4nc5sc(C)nn5c4[C@@H]3c3ncc(C)cc3F)c(Cl)n2)C1` [Example 1.31.11, (R)-2-((2-chloro-6-(3-methoxy-3-methylazetidin-1-yl)pyridin-3-yl)oxy)-1-(5-(3-fluoro-5-methylpyridin-2-yl)-2-methyl-7,8-dihydro-[1,3,4]thiadiazolo[2′,3′:2,3]imidazo[4,5-c]pyridin-6(5H)-yl)ethanone]: the IC50 stood at 23 nM.

`CNC(=O)c1ccc(OCC(=O)N2CCc3nc4sc(C)nn4c3C2c2ncc(C)cc2F)c(Cl)n1` (centres unmarked) [Example 1.31.6, 6-chloro-5-(2-(5-(3-fluoro-5-methylpyridin-2-yl)-2-methyl-7,8-dihydro-[1,3,4]thiadiazolo[2′,3′:2,3]imidazo[4,5-c]pyridin-6(5H)-yl)-2-oxoethoxy)-N-methylpicolinamide] gave a half-inhibitory concentration (IC50) of 7 nM.

As to `Cc1nn2c3c(nc2s1)CCN(C(=O)COc1ccc(N(C)C)nc1Cl)C3c1cnc(OC(F)F)cc1C` (centres unmarked) [Example 1.15.1, 2-((2-chloro-6-(dimethylamino)pyridin-3-yl)oxy)-1-(5-(6-(difluoromethoxy)-4-methylpyridin-3-yl)-2-methyl-7,8-dihydro-[1,3,4]thiadiazolo[2′,3′:2,3]imidazo[4,5-c]pyridin-6(5H)-yl)ethanone], half-maximal inhibition (IC50) required 58 nM.

For the molecule `Cc1nn2c3c(nc2s1)CCN(C(=O)COc1ccc(N2CCOCC2)nc1F)C3c1ncc(C2CC2)cc1F` (centres unmarked) [Example 1.14.5, 1-(5-(5-cyclopropyl-3-fluoropyridin-2-yl)-2-methyl-7,8-dihydro-[1,3,4]thiadiazolo[2′,3′:2,3]imidazo[4,5-c]pyridine-6(5H)-yl)-2-((2-fluoro-6-morpholinopyridin-3-yl)oxy)ethanone], the IC50 was 9 nM.

As to `Cc1nn2c3c(nc2s1)CCN(C(=O)COc1ccc(C(F)(F)F)nc1Cl)C3c1sccc1F` (centres unmarked) [Example 1.23.3, 2-((2-chloro-6-(trifluoromethyl)pyridin-3-yl)oxy)-1-(5-(3-fluorothiophen-2-yl)-2-methyl-7,8-dihydro-[1,3,4]thiadiazolo [2′,3′:2,3]imidazo[4,5-c]pyridin-6(5H)-yl)ethanone], the IC50 is 20 nM.

`O=C(COc1cccc(C(F)(F)F)c1Cl)N1CCc2nc3sccn3c2C1c1nc2ccccc2s1` (centres unmarked) [Example 6.12.5, 1-(5-(benzo[d]thiazol-2-yl)-7,8-dihydrothiazolo-[2′,3′:2,3]imidazo[4,5-c]pyridin-6(5H)-yl)-2-(2-chloro-3-(trifluoromethyl)phenoxy)ethanone] gave an IC50 of 28 nM.

Regarding `Cc1nn2c3c(nc2s1)CCN(C(=O)COc1ccc(C(F)(F)F)nc1Cl)C3c1ccc(Cl)nc1F` (centres unmarked) [Example 1.16.4, 1-(5-(6-chloro-2-fluoropyridin-3-yl)-2-methyl-7,8-dihydro-[1,3,4]thiadiazolo[2′,3′:2,3]imidazo[4,5-c]pyridin-6(5H)-yl)-2-((2-chloro-6-(trifluoromethyl)pyridin-3-yl)oxy)ethanone], the concentration for half-maximal inhibition (IC50) is 27 nM. The IC50 values of the last two molecules are within 1.5-fold of each other.
